The subject of this test is P388 leukemia ip, CD2F1 mice, survival T/C. Description: NCI In Vivo Anticancer Drug Screen. Data for tumor model P388 Leukemia (intraperitoneal) in CD2F1 (CDF1) mice. The note with it: endpoint: median survival time, higher = longer survival. In short, it runs like this:
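Mice carrying the transplanted tumor received test compound or vehicle. Survival was recorded in each group, and the value is the treated-group measurement divided by that of the vehicle-treated control group.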

Setting [1] is: dose: 50.0 mg/kg/injection, schedule: Q01DX005 (ip), vehicle: saline with Tween-80.
The mark [2] stands for this setting: dose: 100.0 mg/kg/injection, schedule: Q01DX005 (ip), vehicle: saline with Tween-80.
Where [3] appears, read: dose: 200.0 mg/kg/injection, schedule: Q01DX005 (ip), vehicle: saline with Tween-80.
Where [4] appears, read: dose: 50.0 mg/kg/injection, schedule: Q01DX009 (ip), vehicle: Klucel (hydroxypropylcellulose) (HPC).
Where [5] appears, read: dose: 100.0 mg/kg/injection, schedule: Q01DX009 (ip), vehicle: Klucel (hydroxypropylcellulose) (HPC).
[6] abbreviates: dose: 200.0 mg/kg/injection, schedule: Q01DX009 (ip), vehicle: Klucel (hydroxypropylcellulose) (HPC).
Where [7] appears, read: dose: 50.0 mg/kg/injection, schedule: Q01DX005 (ip), vehicle: Klucel (hydroxypropylcellulose) (HPC).
Where [8] appears, read: dose: 100.0 mg/kg/injection, schedule: Q01DX005 (ip), vehicle: Klucel (hydroxypropylcellulose) (HPC).
Where [9] appears, read: dose: 200.0 mg/kg/injection, schedule: Q01DX005 (ip), vehicle: Klucel (hydroxypropylcellulose) (HPC).
[10] abbreviates: dose: 25.0 mg/kg/injection, schedule: Q01DX009 (ip), vehicle: saline.
[11] abbreviates: dose: 50.0 mg/kg/injection, schedule: Q01DX009 (ip), vehicle: saline.
Setting [12] is: dose: 100.0 mg/kg/injection, schedule: Q01DX009 (ip), vehicle: saline.
Setting [13] is: dose: 100.0 mg/kg/injection, schedule: Q04DX003 (ip), vehicle: Klucel (hydroxypropylcellulose) (HPC).
[14] abbreviates: dose: 200.0 mg/kg/injection, schedule: Q04DX003 (ip), vehicle: Klucel (hydroxypropylcellulose) (HPC).
Where [15] appears, read: dose: 400.0 mg/kg/injection, schedule: Q04DX003 (ip), vehicle: Klucel (hydroxypropylcellulose) (HPC).
Setting [16] is: dose: 50.0 mg/kg/injection, schedule: Q01DX009 (ip), vehicle: saline with Tween-80.
[17] abbreviates: dose: 100.0 mg/kg/injection, schedule: Q01DX009 (ip), vehicle: saline with Tween-80.
The mark [18] stands for this setting: dose: 200.0 mg/kg/injection, schedule: Q01DX009 (ip), vehicle: saline.

SMILES strings stand for the structures. Where “and” joins values, the source holds several entries; their conditions need not be identical. Equal values may be shown once. Toxic doses and inconclusive results are not listed.

For `N#CC(C(=O)CCCC(=O)Nc1cccc([N+](=O)[O-])c1)c1c(Cl)cccc1Cl` (centres undefined), the T/C was 111 % of control under setting [1], 111 % of control under setting [2] and 105 % of control under setting [3].
With `O=S(=O)(c1cc(Cl)ccc1Cl)N(CCCCCN(S(=O)(=O)c1cc(Cl)ccc1Cl)S(=O)(=O)c1cc(Cl)ccc1Cl)S(=O)(=O)c1cc(Cl)ccc1Cl`, the T/C by setting is: (dose: 60.0 mg/kg/injection, schedule: Q01DX005 (ip), vehicle: saline with Tween-80) 99 % of control; (dose: 120.0 mg/kg/injection, schedule: Q01DX005 (ip), vehicle: saline with Tween-80) 96 % of control; (dose: 240.0 mg/kg/injection, schedule: Q01DX005 (ip), vehicle: saline with Tween-80) 95 % of control.
On to `Cc1noc2c1N=C(c1ccccc1)CC(c1ccccc1)C2` (centres undefined), for which the T/C is 104 % of control (dose: 25.0 mg/kg/injection, schedule: Q01DX009 (ip), vehicle: Klucel (hydroxypropylcellulose) (HPC)); 104 % of control and 111 % of control under setting [4]; 109 % of control under setting [5]; 109 % of control under setting [6].
Turning to `Nc1ncnc2c1nc(Br)n2C1OC2COP(=O)(O)OC2C1O` (centres undefined), the T/C runs as follows: (dose: 50.0 mg/kg/injection, schedule: Q01DX009 (ip), vehicle: suspension in saline) 100 % of control; (dose: 100.0 mg/kg/injection, schedule: Q01DX009 (ip), vehicle: suspension in saline) 96 % of control; (dose: 200.0 mg/kg/injection, schedule: Q01DX009 (ip), vehicle: suspension in saline) 100 % of control.
Take `C[N+](C)=NC1CCC(C(C)(C)C)CC1` (centres undefined): the T/C reads like this: (dose: 12.5 mg/kg/injection, schedule: Q01DX005 (ip), vehicle: saline with Tween-80) 99 % of control; (dose: 25.0 mg/kg/injection, schedule: Q01DX005 (ip), vehicle: saline with Tween-80) 99 % of control; under setting [1], 100 % of control.
`CCC(=O)N(C)C(C)C(=O)OC1CC(=O)N(C)c2cc(cc(OC)c2Cl)CC(CO)=C/C=C/C(OC)C2(O)CC(OC(=O)N2)C(C)C2OC12C` (centres undefined): the T/C is, setting by setting: (dose: 50.0 micrograms/kg/injection, schedule: Q01DX009 (ip), vehicle: saline + alcohol) 124 % of control; (dose: 100.0 micrograms/kg/injection, schedule: Q01DX009 (ip), vehicle: saline + alcohol) 158 % of control; (dose: 400.0 micrograms/kg/injection, schedule: Q01DX009 (ip), vehicle: saline + alcohol) 150 % of control and 158 % of control; (dose: 800.0 micrograms/kg/injection, schedule: Q01DX009 (ip), vehicle: saline + alcohol) 155 % of control.
In the case of `COc1ccc(-c2nn(C)c3c2C(=O)C=CC3=O)cc1OC`, the T/C was 92 % of control (dose: 100.0 mg/kg/injection, schedule: Q01DX001 (ip), vehicle: Klucel (hydroxypropylcellulose) (HPC)); 106 % of control (dose: 200.0 mg/kg/injection, schedule: Q01DX001 (ip), vehicle: Klucel (hydroxypropylcellulose) (HPC)); 95 % of control (dose: 400.0 mg/kg/injection, schedule: Q01DX001 (ip), vehicle: Klucel (hydroxypropylcellulose) (HPC)).
As to `Cc1ccccc1NCN1C(=O)S/C(=C2\C(=O)N(C)c3ccc(Br)cc32)C1=O`, the T/C runs as follows: under setting [7], 95 % of control; under setting [8], 92 % of control; under setting [9], 90 % of control.
Consider `Cc1cc(NCCCCCCNc2cc(C)[n+](C)c3ccccc23)c2ccccc2[n+]1C`, for which the T/C is, setting by setting: (dose: 3.12 mg/kg/injection, schedule: Q01DX005 (ip), vehicle: suspension in saline) 101 % of control; (dose: 6.25 mg/kg/injection, schedule: Q01DX005 (ip), vehicle: suspension in saline) 106 % of control; (dose: 12.5 mg/kg/injection, schedule: Q01DX005 (ip), vehicle: suspension in saline) 115 % of control.
Turning to `NC(=O)CC1(O)CCCCC1`, the T/C runs as follows: under setting [10], 100 % of control; under setting [11], 100 % of control; under setting [12], 100 % of control.
For the compound `COc1cc2c(c3oc4c(O)cccc4c(=O)c13)CC(C(C)(O)CCl)O2` (centres undefined), the T/C runs as follows: (dose: 2.0 mg/kg/injection, schedule: Q01DX009 (ip), vehicle: saline + alcohol) 113 % of control; (dose: 4.0 mg/kg/injection, schedule: Q01DX009 (ip), vehicle: saline + alcohol) 112 % of control.
Consider `COC(=O)C1c2cc3c(c(O)c2C(OC2OC(C)C(OC)C(C)(OC)C2OC)CC1(C)O)C(=O)c1c(O)cc2c(c1C3=O)OC1OC2(C)C(O)C(N(C)C=O)C1O` (centres undefined), for which the T/C runs as follows: (dose: 1.56 mg/kg/injection, schedule: Q04DX003 (ip), vehicle: other) 100 % of control; (dose: 3.12 mg/kg/injection, schedule: Q04DX003 (ip), vehicle: other) 96 % of control; (dose: 6.25 mg/kg/injection, schedule: Q04DX003 (ip), vehicle: other) 100 % of control; (dose: 12.5 mg/kg/injection, schedule: Q04DX003 (ip), vehicle: other) 110 % of control; (dose: 25.0 mg/kg/injection, schedule: Q04DX003 (ip), vehicle: other) 112 % of control.
For the compound `COc1cc(OC)c(OC)cc1/C=C/[N+](=O)[O-]`, the T/C reads like this: under setting [13], 102 % of control; under setting [14], 100 % of control; under setting [15], 111 % of control.
Consider `OC(C(Br)CBr)C(O)C(Br)CBr` (centres undefined), for which the T/C is, setting by setting: under setting [4], 105 % of control; under setting [5], 110 % of control; under setting [6], 112 % of control.
For `Cc1ccc(C)c(C2(c3cc(C)ccc3C)CCCCCC2=O)c1`, the T/C under setting [8] was 88 % of control.
As to `COc1ccccc1C1OC2=C(Nc3ccc([N+](=O)[O-])cc3N2)C1=O` (centres undefined), the T/C runs as follows: (dose: 30.0 mg/kg/injection, schedule: Q01DX005 (ip), vehicle: Klucel (hydroxypropylcellulose) (HPC)) 93 % of control; (dose: 60.0 mg/kg/injection, schedule: Q01DX005 (ip), vehicle: Klucel (hydroxypropylcellulose) (HPC)) 92 % of control; (dose: 120.0 mg/kg/injection, schedule: Q01DX005 (ip), vehicle: Klucel (hydroxypropylcellulose) (HPC)) 92 % of control and 96 % of control.
Take `Cc1c([N+](=O)[O-])cc(N)cc1S(=O)(=O)O`: the T/C reads like this: under setting [7], 96 % of control; under setting [8], 96 % of control; under setting [9], 93 % of control.
As to `CC(C)(C)OC(=O)N1CCCC1C(=O)O` (centres undefined), the T/C under setting [7] was 100 % of control, the T/C under setting [8] is 106 % of control and the T/C under setting [9] was 99 % of control.
In the case of `Cc1ccccc1-c1nc2cc(Cl)ccc2c(=O)o1`, the T/C (dose: 25.0 mg/kg/injection, schedule: Q01DX009 (ip), vehicle: saline with Tween-80) was 105 % of control; the T/C under setting [16] is 110 % of control; the T/C under setting [17] was 110 % of control.
Take `C=COC(=O)C(NC(=O)OCc1ccccc1)c1ccccc1` (centres undefined): the T/C under setting [1] was 102 % of control, the T/C under setting [2] was 101 % of control and the T/C under setting [3] was 95 % of control.
Take `O=C(NO)c1cccc2ccccc12`: the T/C reads like this: under setting [7], 106 % of control; under setting [8], 106 % of control; under setting [9], 113 % of control.
Turning to `Nc1nc2c(c(=O)[nH]1)N(C(=O)CCCC(=O)O)C(CN(C(=O)CCCC(=O)O)c1ccc(C(=O)NC(CCC(=O)O)C(=O)O)cc1)CN2` (centres undefined) (tested in a mixture with another compound), the T/C is, setting by setting: under setting [11], 94 % of control; under setting [12], 110 % of control; under setting [18], 95 % of control.
On to `CC(CCCN)Nc1cc2c(c3cccnc13)OCCO2` (centres undefined), for which the T/C is 90 % of control (dose: 6.25 mg/kg/injection, schedule: Q01DX009 (ip), vehicle: saline); 86 % of control (dose: 12.5 mg/kg/injection, schedule: Q01DX009 (ip), vehicle: saline); 100 % of control under setting [10].
Regarding `CCOC(=O)N(C)C(=O)NC`, the T/C reads like this: under setting [11], 103 % of control and 105 % of control; under setting [12], 103 % of control and 109 % of control; under setting [18], 100 % of control and 104 % of control.
As for `O=c1[nH]c(=S)[nH]c2nccnc12`, the T/C under setting [13] was 105 % of control, the T/C under setting [14] is 118 % of control and the T/C under setting [15] was 112 % of control.
As to `Cc1cc2c(c3ncccc13)OCN(Cc1ccc(Cl)c(Cl)c1)C2`, the T/C is 100 % of control under setting [16]; 98 % of control under setting [17]; 100 % of control (dose: 200.0 mg/kg/injection, schedule: Q01DX009 (ip), vehicle: saline with Tween-80).

Values taken from PubChem BioAssay AID330 (DTP/NCI, 2004).
